Target: ATP-dependent translocase ABCB1 (Rattus norvegicus, UniProt P43245)
Assay: TP_TRANSPORTER: intracellular accumulation in mdr1b-expressing NIH3T3 cells
Format: functional, cell-based
Conditions: mouse

Sequence of ATP-dependent translocase ABCB1 (P43245 whole entry): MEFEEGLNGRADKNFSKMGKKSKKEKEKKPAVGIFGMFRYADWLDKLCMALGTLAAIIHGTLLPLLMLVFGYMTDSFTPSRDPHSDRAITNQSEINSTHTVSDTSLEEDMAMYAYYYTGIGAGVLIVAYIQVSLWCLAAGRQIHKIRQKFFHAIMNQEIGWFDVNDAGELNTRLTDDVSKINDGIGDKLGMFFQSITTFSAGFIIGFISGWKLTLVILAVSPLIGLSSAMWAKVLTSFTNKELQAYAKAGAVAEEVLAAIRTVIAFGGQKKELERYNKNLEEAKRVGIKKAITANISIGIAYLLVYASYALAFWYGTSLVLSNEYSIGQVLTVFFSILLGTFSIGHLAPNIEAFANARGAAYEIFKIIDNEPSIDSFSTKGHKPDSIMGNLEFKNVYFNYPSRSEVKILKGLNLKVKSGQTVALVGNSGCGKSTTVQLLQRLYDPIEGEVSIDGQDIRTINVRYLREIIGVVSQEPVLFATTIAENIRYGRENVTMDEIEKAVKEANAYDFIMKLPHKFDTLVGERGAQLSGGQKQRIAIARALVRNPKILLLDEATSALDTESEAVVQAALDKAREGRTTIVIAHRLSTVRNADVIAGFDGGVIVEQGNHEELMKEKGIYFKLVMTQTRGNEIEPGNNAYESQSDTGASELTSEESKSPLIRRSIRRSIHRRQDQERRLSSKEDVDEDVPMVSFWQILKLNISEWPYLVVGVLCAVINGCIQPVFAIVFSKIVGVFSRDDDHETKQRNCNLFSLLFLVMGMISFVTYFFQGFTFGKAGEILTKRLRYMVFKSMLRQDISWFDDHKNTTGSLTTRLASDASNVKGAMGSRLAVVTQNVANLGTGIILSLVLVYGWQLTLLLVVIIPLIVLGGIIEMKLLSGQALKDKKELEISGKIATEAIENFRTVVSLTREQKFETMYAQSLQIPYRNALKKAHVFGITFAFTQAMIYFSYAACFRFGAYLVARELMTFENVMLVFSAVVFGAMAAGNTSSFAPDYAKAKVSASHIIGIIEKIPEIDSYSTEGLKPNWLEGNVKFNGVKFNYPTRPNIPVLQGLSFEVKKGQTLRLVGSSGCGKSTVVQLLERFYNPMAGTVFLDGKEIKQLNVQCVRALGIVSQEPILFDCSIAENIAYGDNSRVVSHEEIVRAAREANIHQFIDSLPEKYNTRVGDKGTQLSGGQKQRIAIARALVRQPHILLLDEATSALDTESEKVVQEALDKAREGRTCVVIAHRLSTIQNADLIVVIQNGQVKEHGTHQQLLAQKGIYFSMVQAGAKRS

COC(=O)c1ccccc1-c1c2ccc(=N)cc-2oc2cc(N)ccc12.Cl [RHODAMINE123]
Activity: substrate [+]
